Laboratory results from patent publication US20050176755A1, “Aza-bridged-bicyclic amino acid derivatives as alpha4 integrin antagonists” (priority 2003, published 2005).
Read-outs that look alike come from different tables or passages of the source.

Columns and labels:
α4β1 [1] = molecular target: T1, α4β1 (Homo sapiens, UniProt P05556+P13612); experiment: Ramos Cell Adhesion Assay (α4β1 Mediated Adhesion/VCAM-1); assay type: cell-based; parameters: Ramos Cell Adhesion Assay (α4β1 Mediated Adhesion/VCAM-1); endogenous in cells; host or cells: Ramos cells
Method: (§1) Ramos Cell Adhesion Assay (α4β1 Mediated Adhesion/VCAM-1) Immulon 96 well plates (Dynex) were coated with 100 μL recombinant hVCAM-1 at 4.0 μg/mL in 0.05 M NaCO3 buffer pH 9.0 overnight at 4° C. (R&D Systems). Plates were washed 3 times in PBS with 1% BSA and blocked for 1 h @ room temperature in this buffer. PBS was removed and compounds to be tested (50 μL) were added at 2× concentration. Ramos cells, (50 μL at 2×10^6/mL) labeled with 5 μM Calcein AM (Molecular Probes) for 1 h at 37° C., were added to each well and allowed to adhere for 1 h at room temperature. Plates were washed 3× in PBS+1% BSA and cells were lysed for 15 minutes in 100 μL of 1 M Tris pH 8.0 with 1% SDS. The plate was read at 485 nm excitation and 530 nm emission.

human α4β7 = molecular target: T2, human α4β7 (Homo sapiens, UniProt P13612+P26010); experiment: α4β7-K562 Cell Adhesion Assay (α4β7 Mediated Adhesion/VCAM-1); assay type: cell-based
T2 construct: expressed in transfected cells
T2 sequence (P13612 34-1032): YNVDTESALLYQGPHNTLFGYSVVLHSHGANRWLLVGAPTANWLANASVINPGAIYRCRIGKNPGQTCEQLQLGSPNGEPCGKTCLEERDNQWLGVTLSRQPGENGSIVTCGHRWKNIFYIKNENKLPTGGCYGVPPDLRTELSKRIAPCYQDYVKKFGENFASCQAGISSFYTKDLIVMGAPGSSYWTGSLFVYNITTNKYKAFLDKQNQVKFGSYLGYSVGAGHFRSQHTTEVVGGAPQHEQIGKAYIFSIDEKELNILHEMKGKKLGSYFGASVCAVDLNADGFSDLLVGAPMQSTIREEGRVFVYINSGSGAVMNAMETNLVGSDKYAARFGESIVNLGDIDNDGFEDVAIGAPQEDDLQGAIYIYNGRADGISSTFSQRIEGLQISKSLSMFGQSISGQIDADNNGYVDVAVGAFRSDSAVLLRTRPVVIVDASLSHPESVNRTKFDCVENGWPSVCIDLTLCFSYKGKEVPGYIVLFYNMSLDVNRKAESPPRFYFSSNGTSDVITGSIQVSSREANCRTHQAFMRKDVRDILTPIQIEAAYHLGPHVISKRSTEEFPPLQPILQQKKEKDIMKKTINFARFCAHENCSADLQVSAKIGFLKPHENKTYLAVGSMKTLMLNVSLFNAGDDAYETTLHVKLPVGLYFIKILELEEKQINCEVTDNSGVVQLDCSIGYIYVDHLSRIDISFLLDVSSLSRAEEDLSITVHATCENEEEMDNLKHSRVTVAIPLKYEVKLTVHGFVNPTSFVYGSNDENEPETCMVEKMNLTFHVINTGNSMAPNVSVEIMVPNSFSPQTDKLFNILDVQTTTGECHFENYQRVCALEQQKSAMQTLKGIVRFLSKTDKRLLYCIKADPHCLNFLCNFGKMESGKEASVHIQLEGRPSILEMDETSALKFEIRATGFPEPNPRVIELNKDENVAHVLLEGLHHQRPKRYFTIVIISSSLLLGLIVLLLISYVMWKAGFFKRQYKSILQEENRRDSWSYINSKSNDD
T2 sequence (P26010 20-798): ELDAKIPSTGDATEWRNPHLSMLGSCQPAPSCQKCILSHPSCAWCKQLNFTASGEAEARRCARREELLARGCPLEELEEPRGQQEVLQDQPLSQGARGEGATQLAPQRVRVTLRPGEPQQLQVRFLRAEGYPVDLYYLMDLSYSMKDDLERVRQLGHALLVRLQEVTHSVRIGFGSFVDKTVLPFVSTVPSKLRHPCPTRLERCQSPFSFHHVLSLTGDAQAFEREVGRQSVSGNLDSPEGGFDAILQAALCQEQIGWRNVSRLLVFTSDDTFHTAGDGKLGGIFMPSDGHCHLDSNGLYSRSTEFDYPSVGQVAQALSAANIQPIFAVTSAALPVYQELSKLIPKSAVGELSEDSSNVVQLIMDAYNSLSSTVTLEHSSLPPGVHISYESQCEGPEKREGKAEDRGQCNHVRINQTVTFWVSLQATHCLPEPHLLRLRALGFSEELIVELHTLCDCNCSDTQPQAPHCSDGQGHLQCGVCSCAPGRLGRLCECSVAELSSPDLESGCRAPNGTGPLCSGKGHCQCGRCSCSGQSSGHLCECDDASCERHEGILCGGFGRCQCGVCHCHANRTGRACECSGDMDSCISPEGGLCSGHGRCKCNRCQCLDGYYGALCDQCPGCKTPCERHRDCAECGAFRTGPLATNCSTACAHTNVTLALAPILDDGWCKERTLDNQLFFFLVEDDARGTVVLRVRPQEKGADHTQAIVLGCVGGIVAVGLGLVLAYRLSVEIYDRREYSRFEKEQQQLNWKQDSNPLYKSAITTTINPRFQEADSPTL
Method: as §1, with “α4β7-K562” for “Ramos”, “(α4β7” for “(α4β1”, “@room” for “@ room”, “A stable cell line of K562 cells expressing human α4β7,” for “Ramos cells,”

[2] = test system: heterotopic heart allograft; settings: hyperlipidemic rabbit; cited from earlier work
α4β1 [3] = molecular target: T1, α4β1; settings: background, literature; cited from earlier work
[4] = test system: oxazolone-induced contact hypersensitivity; settings: mouse, 6 mg/kg, sc; cited from earlier work
[5] = Ramos cells, adhesion to recombinant hVCAM-1, read-out: α4β1 IC50
[6] = K562 cells expressing human α4β7, adhesion to recombinant hVCAM-1, read-out: α4β7 IC50

T1 sequence (P05556 21-798, one chain of several): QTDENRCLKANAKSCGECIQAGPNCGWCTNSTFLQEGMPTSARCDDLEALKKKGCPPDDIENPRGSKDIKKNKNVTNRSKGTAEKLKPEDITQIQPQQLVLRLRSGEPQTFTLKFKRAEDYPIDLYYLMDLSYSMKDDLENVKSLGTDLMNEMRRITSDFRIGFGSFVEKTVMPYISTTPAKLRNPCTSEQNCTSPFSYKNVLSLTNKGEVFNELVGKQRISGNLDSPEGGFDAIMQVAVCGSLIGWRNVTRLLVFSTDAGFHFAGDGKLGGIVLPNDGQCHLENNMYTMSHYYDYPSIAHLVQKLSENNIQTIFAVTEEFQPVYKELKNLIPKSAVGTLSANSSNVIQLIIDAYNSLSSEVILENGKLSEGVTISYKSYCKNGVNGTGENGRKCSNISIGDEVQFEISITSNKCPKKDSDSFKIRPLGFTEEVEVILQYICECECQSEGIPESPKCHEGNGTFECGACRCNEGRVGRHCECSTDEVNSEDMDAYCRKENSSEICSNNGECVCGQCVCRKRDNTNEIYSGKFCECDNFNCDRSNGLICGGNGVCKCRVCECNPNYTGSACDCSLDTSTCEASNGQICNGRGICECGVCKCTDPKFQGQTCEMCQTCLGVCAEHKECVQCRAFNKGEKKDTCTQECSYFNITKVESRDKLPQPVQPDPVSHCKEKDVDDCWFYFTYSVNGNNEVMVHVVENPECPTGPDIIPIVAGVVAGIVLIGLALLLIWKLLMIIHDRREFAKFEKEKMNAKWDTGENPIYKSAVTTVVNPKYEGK

Compound | IC50 (α4β1 [1]; [5]) [nM] | IC50 (human α4β7; [6]) [nM] | other results
O=C(O)C(Cc1ccc(OC(=O)N2CCOCC2)cc1)NC(=O)C1C2CCC(CC2)N1C(=O)CCc1ccc2c(c1)OCO2 (centres unmarked) [Cpd 23] | 217 | 277 | –
NCCC(=O)N1C2CCC(CC2)C1C(=O)NC(Cc1ccc(NC(=O)c2c(Cl)cncc2Cl)cc1)C(=O)O (centres unmarked) [Cpd 15] | 29 | 60 | –
COCCC(=O)N1C2CCC(CC2)C1C(=O)NC(Cc1ccc(OC(=O)N(C)C)cc1)C(=O)O (centres unmarked) [Cpd 14] | – | – | IC50 (α4β1 [1]): 1270 nM; IC50 (human α4β7): 304 nM
CC(C)(O)CCCC(=O)N1C2CCC(CC2)C1C(=O)NC(Cc1ccc(NC(=O)c2c(Cl)cncc2Cl)cc1)C(=O)O (centres unmarked) [Cpd 11] | 14 | 47 | –
O=C(Nc1ccc(CC(NC(=O)C2C3CCC(CC3)N2C(=O)CS(=O)(=O)c2ccccc2)C(=O)O)cc1)c1c(Cl)cncc1Cl (centres unmarked) [Cpd 6] | 15 | 27 | –
O=C(O)C(Cc1ccc(OC(=O)N2CCOCC2)cc1)NC(=O)C1C2CCC(CC2)N1C(=O)CCO (centres unmarked) [Cpd 10] | > 1000 | 896 | –
O=C(Nc1ccc(CC(NC(=O)C2C3CCC(CC3)N2C(=O)CSc2ccccn2)C(=O)O)cc1)c1c(Cl)cncc1Cl (centres unmarked) [Cpd 1] | 9 | 10 | –
Phenylacetyl-Leu-Asp-Phe-D-Pro-NH2 | – | – | efficacy in heart allograft model [2]: effective; IC50 (α4β1 [3]): 2000 nM; efficacy in oxazolone-induced contact hypersensitivity [4]: efficacy similar to the α4 antibody PS/2
O=C(Nc1ccc(CC(NC(=O)C2C3CCC(CC3)N2C(=O)CSc2ccc(F)cc2)C(=O)O)cc1)c1c(Cl)cncc1Cl (centres unmarked) [Cpd 2] | 6 | 20 | –
COCCC(=O)N1C2CCC(CC2)C1C(=O)NC(Cc1ccc(NC(=O)c2c(Cl)cncc2Cl)cc1)C(=O)O (centres unmarked) [Cpd 12] | 8 | 117 | –
COCCC(=O)Nc1ccc(CC(NC(=O)C2C3CCC(CC3)N2C(=O)CCOC)C(=O)O)cc1 (centres unmarked) [Cpd 13] | > 1000 | 2370 | –
O=C(Nc1ccc(CC(NC(=O)C2C3CCC(CC3)N2C(=O)CCO)C(=O)O)cc1)c1c(Cl)cncc1Cl (centres unmarked) [Cpd 8] | 4 | 6 | –
CS(=O)(=O)CC(=O)N1C2CCC(CC2)C1C(=O)NC(Cc1ccc(NC(=O)c2c(Cl)cncc2Cl)cc1)C(=O)O (centres unmarked) [Cpd 5] | 17 | 32 | –
O=C(Nc1ccc(CC(NC(=O)C2C3CCC(CC3)N2C(=O)CCO)C(=O)O)cc1)c1c(Cl)cccc1Cl (centres unmarked) [Cpd 9] | 135 | 67 | –
O=C(Nc1ccc(CC(NC(=O)C2C3CCC(CC3)N2C(=O)CSc2ccncc2)C(=O)O)cc1)c1c(Cl)cncc1Cl (centres unmarked) [Cpd 3] | 6 | 6 | –
O=C(Nc1ccc(CC(NC(=O)C2C3CCC(CC3)N2C(=O)CCc2ccc3c(c2)OCO3)C(=O)O)cc1)c1c(Cl)cccc1Cl (centres unmarked) [Cpd 22] | 45 | 35 | –
CN(C)CCC(=O)N1C2CCC(CC2)C1C(=O)NC(Cc1ccc(NC(=O)c2c(Cl)cncc2Cl)cc1)C(=O)O (centres unmarked) [Cpd 16] | 23 | 177 | –
